Experiments:
Type in all cases: cell-based, human
[1] = tested on: hES-3-MC aggregates (agitation culture); experiment: DoE multifactorial mesoderm induction: % KDR+ cells by flow cytometry; conditions: BMP4 10 to 50 ng/ml, Activin A 0-80 ng/ml, CHIR exposure 0 to 24 hours, 4 days post initiation of differentiation
Experimental: (§1) Different doses (and/or duration of exposure) of cytokines and small-molecules with known roles in inducing mesoderm and hematopoietic differentiation were evaluated using the MODDE® software for differentiation of hES-3 MC aggregate cultures initially derived under agitation. The DoE was designed to investigate effects of BMP4 (10-50 ng/ml), Activin A (0 to 80 ng/ml), CHIR (0-15 μM at 0 to 48 hours after start of mesoderm induction). These variables generated 29 culture conditions (FIG. 2A), which were tested for their effects on percent of KDR+ cells (4 days post initiation of differentiation) and the following stage of hematopoietic precursors generation (2 weeks of culture in Blast growth medium (BGM)).
Design of experiments (DoE) using a resolution IV Fractional Factorial Design was performed using the MODDE software (Sartorius Stedim Biotech, Germany) to evaluate initial BMP4, Activin A and CHIR-99021, doses and duration of exposure for their effects on the following response factors: induction of KDR+ cells 4 days post mesoderm induction or total hematopoietic precursor cells generated 2 weeks post differentiation.
Design of experiments (DoE) using a resolution IV Fractional Factorial Design was performed using the MODDE software (Sartorius Stedim Biotech, Germany) to evaluate initial BMP4, Activin A and CHIR-99021, doses and duration of exposure for their effects on the following response factors: induction of KDR+ cells 4 days post mesoderm induction or total hematopoietic precursors generated 2 weeks post differentiation. […] Computed model with R2 scores>0.5 indicate a model of significant fit, Q2 scores>0.1 indicate a significant model while Q2>0.5 indicate a good model for estimation of future prediction precision, model validity score of <0.25 indicate statistically significant model problems and reproducibility (the variation of the replicates compared to overall variability) should be greater than 0.5. […]

[2] = tested on: hES-3-MC aggregates (agitation culture); experiment: DoE: hematopoietic precursor generation, 14 days in Blast growth medium (BGM); conditions: BMP4 10 to 50 ng/ml, Activin A 0-80 ng/ml, CHIR exposure 0 to 24 hours, 2 weeks in BGM
Experimental: as §1
Design of experiments (DoE) using a resolution IV Fractional Factorial Design was performed using the MODDE software (Sartorius Stedim Biotech, Germany) to evaluate initial BMP4, Activin A and CHIR-99021, doses and duration of exposure for their effects on the following response factors: induction of KDR+ cells 4 days post mesoderm induction or total hematopoietic precursors generated 2 weeks post differentiation. […] Computed model with R2 scores>0.5 indicate a model of significant fit, Q2 scores>0.1 indicate a significant model while Q2>0.5 indicate a good model for estimation of future prediction precision, model validity score of <0.25 indicate statistically significant model problems and reproducibility (the variation of the replicates compared to overall variability) should be greater than 0.5.
Human pluripotent stem cell-microcarrier (HPSC-MC) aggregates (derived from 7 day continuous agitation conditions), equivalent to 5×10^5 cells, were seeded and differentiated in 24-well ultra-low attachment plates with Stemline II medium using multi-factorial conditions as detailed in FIG. 2A and FIG. 6A, as well as in Table 3. […]
Following 4 days of differentiation, single cells were derived from microcarrier aggregates by treatment with TrypLE. […] Fold-expansion was calculated as total number of cells derived after 2 weeks as compared to initial seeding of 1×10^5 cells.

[3] = tested on: hES-3 microcarrier aggregates; experiment: BMP4-based vs CHIR-based differentiation: erythroblasts output per hPSC seeded
Text: Six conditions were then chosen for the detailed study; conditions 1, 2 and 4 were based on BMP4/Activin A protocols, while conditions 7, 16 and 18 were CHIR-mediated protocols (Table 1).

[4] = hES-3 microcarrier aggregates derived from agitation condition
[5] = hES-3 microcarrier aggregates derived from static condition

Row | Molecule | effect of factor on percent of KDR+ cells (DoE) [1] | effect of factor on hematopoietic precursor generation (DoE) [2] | erythroblasts output per human pluripotent stem cell seeded [3, 4] | erythroblasts output per human pluripotent stem cell seeded [3, 5]
1 | Cc1c[nH]c(-c2cnc(NCCNc3ccc(C#N)cn3)nc2-c2ccc(Cl)cc2Cl)n1 [CHIR-99021, 6-[[2-[[4-(2,4-Dichlorophenyl)-5-(5-methyl-1H-imidazol-2-yl)-2-pyrimidinyl]amino]ethyl]amino]-3-pyridinecarbonitrile] | significant increase | significant increase | 8.0±2.1 | 11.5±2.6
2 | BMP4: bone morphogenic protein; BMP4-based protocol uses 50 ng/ml BMP4 (protein, UniProt P12644 293-408, looked up) Bone morphogenetic protein 4: SPKHHSQRARKKNKNCRRHSLYVDFSDVGWNDWIVAPPGYQAFYCHGDCPFPLADHLNSTNHAIVQTLVNSVNSSIPKACCVPTELSAISMLYLDEYDKVVLKNYQEMVVEGCGCR | did not significantly alter | did not significantly alter | 1.2±0.7 | 7.7±1.9

From patent US12104173B2, “Method for differentiation of human pluripotent stem cell lines in suspension culture” (AGENCY FOR SCIENCE, TECHNOLOGY AND RESEARCH, priority 2018, dated 2024)
